Values of other authors, collected in patent US10986851B2, “Control of pathogenic bacteria in foods” (priority 2018, dated 2021).

Experiments:
[1] = tested on: Salmonella; conditions: suspension in 0.1% peptone water
[2] = tested on: Salmonella; conditions: ground chicken containing 9.8% fat, refrigerated storage, 200 ppm
[3] = tested on: Salmonella; conditions: postchill decontamination tank, ground poultry parts; 0.07 and 0.1% PAA evaluated

Compound	inhibitory effect against Salmonella [1]	effect on growth of Salmonella [2]	reduction of Salmonella [3]
CCCCCCCCCCCC(=O)N[C@@H](CCCN=C(N)N)C(=O)OCC [LAE, lauric arginate]	strong inhibitory (P<0.05) effect	no inhibitory (P>0.05) effect	–
CC(=O)OO [PAA, peracetic acid]	–	–	effective for the reduction of Salmonella
